The values that follow come from patent US10766863B2, “Monocarboxylate transport modulators and uses thereof” (NIROGYONE THERAPEUTICS, INC., priority 2014, dated 2020).

pEC50, pIC50: −log10 of the molar value.

In the first test the test system is monocarboxylate transporters. Description: Lactate consumption assay in tumor cell lines (enzymatic L-Lactate Kit II). It counts as cell-based. As to conditions: tumor cells in 10 mM lactate medium, compound 24 hours; concentration not given. As for the experimental part:
Lactate Consumption Assay in Tumor Cell Lines.
Cells are maintained in their appropriate growth medium (DMEM medium with 4.5 g/L glucose, 4 mM L-glutamine supplemented with 10% FBS and P/S (growth medium). Cells (500,000 cells/well) were seeded in 24-well plate in growth medium for 6 hours. Replace the growth medium with 1 mL lactate medium (10 mM lactate in base DMEM without sodium pyruvate) for overnight. Cells were treated with compounds in 1 mL lactate medium for 24 hours. The culture medium was collected and centrifuged at 12,000 rpm for 5 minutes at 4° C. to get rid of any cell debris. An aliquot of 0.5 mL of the supernatant was loaded to a deproteinizing column, centrifuged at 12,000 rpm for 15 minutes at 4° C. The flow-through was collected and stored at -80° C. for future analysis. The amount of lactate in the supernatant was analyzed by enzymatic L-Lactate Kit II (Eton Bioscience Inc.). Briefly, 50 μL of 10 times diluted sample was mixed with 50 μL reaction mixture. Lactic acid is oxidized by enzyme reactions to yield color product, which can be measured in dual modes, either at 570 nm for colorimetric assay or with Ex 530-560/Em 570-595 nm fluorescence assay. And the color or fluorescence intensity is proportional to lactic acid concentrations, therefore the sample lactic acid concentration can be accurately calculated based on the lactic acid standards. […]
`CC(C)Cn1cc(C(=O)O)c(=O)c2cc(F)c(N(C)Cc3ccccc3)cc21` [Example 1, 7-(benzyl(methyl)amino)-6-fluoro-1-isobutyl-4-oxo-1,4-dihydroquinoline-3-carboxylic acid]: the “Lactate Consumption [Lactate Kit] (%)/[IC50]” value is listed as 86%.

The test system of a further test is panel of solid and haemotological tumor cell lines. Description: MTS or MTT cell proliferation assay (cytotoxicity of MCT inhibition). The format is cell-based. As to conditions: Homo sapiens; MTS or MTT readout, 72 hours post-dosing; growth medium or 10 mM lactate medium (SiHa); cell line not given. As for the experimental part: MTS or MTT Cell Proliferation Assay
The anti-proliferation effect of MCT inhibition was investigated across a panel of solid and haemotological tumor cell lines. Cells were routinely cultured in their appropriate growth medium. On day 1, between 5,000 -10,000 cells/well were plated into 96-well plates. 100 μL of phosphate buffered saline solution was added to the external wells to prevent media evaporation. Plates were incubated overnight at 37° C. in the presence of 5% CO2. On day 2, dry weight compound stocks were dissolved to a concentration of 20 mM in 100% DMSO. Compounds were further diluted in either growth medium or 10 mM lactate medium (For SiHa cell lines; Basic DMEM, 10% FBS, 10 mM Na-Lactate, 2.2 g/L NaHCO3, no glutamine) to generate a final dose range of 10 nM to 100 μM. Plates were then incubated at 37° C. in the presence of 5% CO2 for a further 72 hours post-dosing. On day 5, 20 μL of CellTiter 96 AQ MTS reagent or MTT was added to each well and the plate was returned to the incubator for 2-4 hours. In case of lactate medium, the medium was replaced by 100 μL of growth medium and 20 μL of CellTiter 96 AQ MTS reagent or replaced the media in cells with 100 uL of growth media containing 10% MTT solution,. MTS or MTT is bioreduced by NADPH or NADH produced by dehydrogenase enzymes in metabolically active cells into a coloured formazan product that is soluble in tissue culture medium. The amount of coloured formazan product is directly proportional to the number of living cells in culture. In the case of MTT, after 4 hr incubation, the media was removed from the plates and the plate was air-dried. Then, 100 uL of DMSO was added to each well, and incubated for 30 mins at room temperature with mild shaking. The absorbance of the plates was read on a Synergy H4 plate reader using […] or 540 nm measurement wavelength. Dose response curves were plotted and IC50 values were calculated using Prism. The IC50 value is equivalent to the concentration of compound that causes 50% inhibition of growth calculated from the compound treated signal to the vehicle treated signal.
On to `CC(C)Cn1cc(C(=O)O)c(=O)c2cc(F)c(N(C)Cc3ccccc3)cc21` [Example 1, 7-(benzyl(methyl)amino)-6-fluoro-1-isobutyl-4-oxo-1,4-dihydroquinoline-3-carboxylic acid], for which the pEC50 was more than 6.00. For `CC(C)Cn1cc(C(=O)O)c(=O)c2cc(F)c(N(C)Cc3cccc(C(F)(F)F)c3)cc21` [Example 3, 6-fluoro-1-isobutyl-7-(methyl(3-(trifluoro-methyl)benzyl)amino)-4-oxo-1,4-dihydroquinoline-3-carboxylic acid], the pEC50 was more than 6.00. Same read-out and setting: with `CC(C)Cn1cc(C(=O)O)c(=O)c2cc(F)c(N(C)Cc3ccc(Cl)cc3)cc21` [Example 4, 7-((4-chlorobenzyl) (methyl)amino)-6-fluoro-1-isobutyl-4-oxo-1,4-dihydro-quinoline-3-carboxylic acid] the figure was more than 6.00; with `CC(C)Cn1cc(C(=O)O)c(=O)c2cc(F)c(NCc3cccc(C(F)(F)F)c3)cc21` [Example 5, 6-fluoro-1-isobutyl-4-oxo-7-((3-(trifluoro-methyl)benzyl)amino)-1,4-dihydroquinoline-3-carboxylic acid], more than 6.00; with `CCn1cc(C(=O)O)c(=O)c2cc(F)c(N(C)Cc3ccccc3)cc21` [Example 6, 7-(benzyl(methyl)amino)-1-ethyl-6-fluoro-4-oxo-1,4-dihydroquinoline-3-carboxylic acid], more than 6.00.

Turning to `CC(C)Cn1cc(C(=O)O)c(=O)c2cc(F)c(N(C)Cc3cccc(F)c3)cc21` [Example 7, 6-fluoro-7-((3-fluorobenzyl)(methyl)amino)-1-isobutyl-4-oxo-1,4-dihydro-quinoline-3-carboxylic acid], the negative logarithm of the EC50 (pEC50) is more than 6.00. Regarding `COc1cccc(CN(C)c2cc3c(cc2F)c(=O)c(C(=O)O)cn3CC(C)C)c1` [Example 8, 6-fluoro-1-isobutyl-7-((3-methoxybenzyl) (methyl)amino)-4-oxo-1,4-dihydroquinoline-3-carboxylic acid], the negative logarithm of the EC50 (pEC50) is more than 6.00.

In the case of `CC(C)Cn1cc(C(=O)O)c(=O)c2cc(F)c(N(C)CC3CCN(C)CC3)cc21` [Example 9, 6-fluoro-1-isobutyl-7-(methyl((1-methyl-piperidin-4-yl)methyl)amino)-4-oxo-1,4-dihydroquinoline-3-carboxylic acid], the pEC50 is more than 6.00. Still for that read-out and setting: with `CC(C)Cn1cc(C(=O)O)c(=O)c2cc(F)c(N(C)Cc3cccs3)cc21` [Example 10, 6-fluoro-1-isobutyl-7-(methyl(thiophen-2-ylmethyl)amino)-4-oxo-1,4-dihydro-quinoline-3-carboxylic acid] the figure was more than 6.00. Still for that read-out and setting: next, `CC(C)Cn1cc(C(=O)O)c(=O)c2cc(F)c(N(C)C(=O)c3ccccc3)cc21` [Example 11, 6-fluoro-1-isobutyl-7-(N-methylbenzamido)-4-oxo-1,4-dihydro-quinoline-3-carboxylic acid]: more than 6.00. For the compound `COc1cccc(CN(C)c2cc3c(cc2F)c(=O)c(C(=O)O)cn3Cc2ccccc2)c1` [Example 12, 1-benzy1-6-fluoro-7-((3-methoxybenzyl) (methyl)amino)-4-oxo-1,4-dihydroquinoline-3-carboxylic acid], the pEC50 was more than 6.00. `Cc1cc(C)n(Cc2cc3c(cc2C(=O)N2CCC2)c(=O)c(C(=O)O)cn3CC(C)C)n1` [Example 15, 6-(azetidine-1-carbonyl)-7-((3,5-dimethyl-1H-pyrazol-1-yl)methyl)-1-isobutyl-4-oxo-1,4-dihydroquinoline-3-carboxylic acid]: the pEC50 is more than 6.00. The same measure, in the same setting: next, `CC(C)n1cc(C(=O)O)c(=O)c2cc(F)c(N(C)Cc3cccnc3)cc21` [Example 16, 6-fluoro-1-isopropyl-7-(methyl(pyridin-3-ylmethyl)amino)-4-oxo-1,4-dihydro-quinoline-3-carboxylic acid]: more than 6.00; `CC(C)n1cc(C(=O)O)c(=O)c2cc(F)c(N(C)Cc3ccccc3)cc21` [Example 17, 7-(benzyl(methyl)amino)-6-fluoro-1-isopropyl-4-oxo-1,4-dihydro-quinoline-3-carboxylic acid]: more than 6.00; `CC(C)n1cc(C(=O)O)c(=O)c2cc(F)c(N(C)Cc3ccc(F)cc3)cc21` [Example 18, 6-fluoro-7-((4-fluorobenzyl)(methyl)amino)-1-isopropyl-4-oxo-1,4-dihydro-quinoline-3-carboxylic acid]: more than 6.00.

Another test relates to monocarboxylate transporters. Description: Lactate uptake by 14C-lactate labeling assay. The format is cell-based. As to conditions: SiHa cells, compound one hour, 2 μM 14C-lactate for 12 minutes; read-out: Lactate Consumption (%)/[IC50][14C labeled]. As for the experimental part: Measuring Lactate Uptake by ^14 C-lactate Labeling Assay.
The inhibition of monocarboxylate transporters of the invention was determined using ^14CLactate, and the data are shown in Table II. Cells are maintained in their appropriate growth medium (DMEM medium with 4.5 g/L glucose, 4 mM L-glutamine supplemented with 10% FBS and P/S (growth medium). Cell culture surface of 24-well cell culture plates (BD Bioscience) were aseptically coated with 80 μL poly-lysine (1 mg/mL, Sigma) for 5 mins, then rinsed with sterile cell culture grade water, air-dried for at least 2 hours before introducing cells and medium. SiHa cells were seeded in poly-lysine coated 24-well plate at 500,000 cells/well in growth medium for 6 hours. Replace the growth medium with 1 mL lactate medium (10 mM lactate in base DMEM without sodium pyruvate) for overnight. Cells were rinsed with modified Kreb solution (containing 10 μM L-lactate, without glucose) and then treated with vehicle or increasing concentrations of compounds (0.1, 1, 10, 100 μM) at 37° C. in 1 mL modified Kreb solution (containing 10 μM L-lactate, 0.25% BSA) for one hour. […] After one hour agitation, the radioactivity was measured using Microbeta TriLux. CPM value was recorded and normalized to protein concentration.
As for `CC(C)Cn1cc(C(=O)O)c(=O)c2cc(F)c(N(C)Cc3ccccc3)cc21` [Example 1, 7-(benzyl(methyl)amino)-6-fluoro-1-isobutyl-4-oxo-1,4-dihydroquinoline-3-carboxylic acid], the pIC50 was more than 6.00.
